Source: patent US20060142321A1, “5-HT7 receptor antagonists” (priority 2004, published 2006)
Where a name gives a salt, the structure may show the parent alone.

Target: T1, Cloned Human Serotonin Receptor, Subtype 7 (h5HT7) (Homo sapiens, UniProt P34969)
T1 construct: purchased PerkinElmer 6120512; host or cells: CHO cells (membranes coated on Basic FlashPlate SMP200)
Assay: Radioligand binding assay, [125I]LSD, cloned h5HT7 expressed in CHO cells (Flashplate)
Conditions: [125I]LSD 0.82 nM, room temperature, 240 minutes, read-out: 5-HT7 IC-50
Description: Biological Assays Radioligand Binding
Radioligand binding assays were performed using the Cloned Human Serotonin Receptor, Subtype 7 (h5HT7), expressed in CHO cells, coated on Flashplate (Basic FlashPlate Cat.: SMP200) from PerkinElmer (Cat.: 6120512). The protocol assay was essentially the recommended protocol in the Technical Data Sheet by PerkinEmer Life and Analytical Sciences. The Mass membrane protein/well was typically 12 μg and the Receptor/well was about 9-10 fmoles. The Flashplate were let equilibrate at room temperature for one hour before the addition of the components of the assay mixture. The binding buffer was: 50 mM Tris-HCl, pH 7.4, containing 10 mM MgCl2, 0.5 mM EDTA and 0.5% BSA. The radioligand was [^125I]LSD at a final concentration of 0.82 nM. Nonspecific binding was determined with 50 μM of Clozapine. The assay volume was 25 μl. TopSeal-A were applied onto Flashplate microplates and they were incubated at room temperature for 240 minutes in darkness. The radioactivity were quantified by liquid scintillation spectrophotometry (Wallac 1450 Microbeta Trilux) with a count delay of 4 minutes prior to counting and a counting time of 30 seconds per well. Competition binding data were analyzed by using the LIGAND program (Munson and Rodbard, LIGAND: A versatile, computerized approach for characterization of ligand-binding systems. Anal. Biochem. 107: 220-239, 1980) and assays were performed in triplicate determinations for each point.

T1 sequence (P34969 whole entry): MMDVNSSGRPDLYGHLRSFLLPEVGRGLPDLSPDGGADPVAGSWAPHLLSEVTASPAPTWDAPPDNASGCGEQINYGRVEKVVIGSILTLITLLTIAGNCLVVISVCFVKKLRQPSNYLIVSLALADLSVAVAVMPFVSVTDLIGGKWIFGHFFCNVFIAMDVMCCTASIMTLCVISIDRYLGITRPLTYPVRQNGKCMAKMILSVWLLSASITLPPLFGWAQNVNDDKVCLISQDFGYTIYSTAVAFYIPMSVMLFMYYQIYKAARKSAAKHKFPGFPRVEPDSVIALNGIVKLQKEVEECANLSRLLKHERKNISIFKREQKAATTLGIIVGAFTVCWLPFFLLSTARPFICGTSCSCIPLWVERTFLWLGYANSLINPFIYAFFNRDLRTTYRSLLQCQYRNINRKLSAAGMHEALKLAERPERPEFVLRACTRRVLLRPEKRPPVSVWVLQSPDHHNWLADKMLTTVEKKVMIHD

Row | IC50 [nM] | SMILES
1 | 79.2 | Cc1cc(S(=O)(=O)NCCCCN2CCc3cccc4c3C2CC4)c(C)cc1Cl (stereo not shown) [Compound 7, 4-Chloro-2,5-dimethyl-N-[4-(2,2a,4-5-tetrahydro-1H-3-aza-acenaphthylen-3-yl)-butyl]-benzenesulfonamide hydrochloride]
2 | 142 | O=S(=O)(NCCCN1CCc2cccc3c2C1CC3)c1cc(Cl)ccc1Cl (stereo not shown) [Compound 15, 2,5-Dichloro-N-[3-(2,2a,4-5-tetrahydro-1H-3-aza-acenaphthylen-3-yl)-propyl]-benzenesulfonamide hydrochloride]
3 | 156 | COc1cc2c3c(c1OC)CCC3N(CCCNS(=O)(=O)c1cc(Cl)ccc1Cl)CC2 (stereo not shown) [Compound 56, 2,5-Dichloro-N-[3-(7,8-dimethoxy-2,2a,4-5-tetrahydro-1H-3-aza-acenaphthylen-3-yl)-propyl]-benzene sulfonamide hydrochloride]
4 | 189 | COc1cc2c3c(c1OC)CCC3N(CCCNS(=O)(=O)c1cc(F)c(F)cc1Cl)CC2 (stereo not shown) [Compound 58, 2-Chloro-N-[3-(7,8-dimethoxy-2,2a,4-5-tetrahydro-1H-3-aza-acenaphthylen-3-yl)-propyl]-4,5-difluoro-benzene sulfonamide hydrochloride]
